Laboratory results: patent US11371097B2, “Articles for diagnosis of liver fibrosis” (THE GOVERNMENT OF THE UNITED STATES, as represented by THE …, priority 2015, dated 2022)
Entries after “also recorded” stand apart in the source; their conditions may differ.

How the values were obtained:
Tgfb1 = experiment: qPCR of liver RNA: Tgfb1; type: in vivo, Male Sprague-Dawley rats
Experimental: (§1) Working on dry ice, a portion (−10 mg) of flash-frozen liver was cut from each sample and transferred to a clean, labeled tube. Total RNA was then isolated using Qiagen's miRNeasy 96 kit (Qiagen, Valencia, Calif.) following manufacturer's instructions with a final elution volume of −150 μL (2×75 μL). The quality and quantity of RNA samples were evaluated with a 2100 Bioanalyzer (Agilent Technologies, Santa Clara, Calif.), using the Agilent RNA 6000 Nano Reagents and a multiwell NanoDrop 8000 spectrophotometer (Thermo Fisher Scientific, Waltham, Mass.).
(§2) Using 1 μg RNA input, cDNA was generated using a QuantiTect Reverse Transcription kit (Qiagen, Valencia, Calif.) following manufacturer's instructions. Applied Biosystems SYBR Green Master Mix was used in a 20 μL qPCR reaction with 2 μL of cDNA template and a 2.tM final concentration of each primer. A total of five genes were targeted (Gapdh, Actb, Timp1, Tgfbl, and Psma5), two of which served as the endogenous controls (Gapdh and Actb). An Applied Biosystems 7500 Real-Time PCR System (Applied Biosystems, Foster City, Calif.) was used for thermal cycling and fluorescence detection using the default settings for Quantitation-Comparative CT with SYBR® . . . Green Reagents which uses the following scheme: 95° C. for 10 minutes followed by 40 cycles of: 95° C. for 15 seconds, 60° C. for 1 minute, and a fluorescence signal read. Al! primers were obtained from Integrated DNA Technology's PrimeTime qPCR primer library (Integrated DNA Technologies, Coralville, Iowa).
Data was imported into GraphPad Prism (GraphPad Software, Inc.; LaJolla, Calif.) for analysis. A nonparametric Kruskal-Wallis analysis of variance by ranks with post hoc […] multiple comparison test was used to determine statistical difference among dose groups. A one sample t-test compared to a theoretical mean of 1.0 fold change was used to determine difference from control for each dose group. A p-value<0.05 was used as a cutoff for statistical significance.

Psma5 = experiment: qPCR of liver RNA: Psma5; type: in vivo, Male Sprague-Dawley rats; conditions: high-dose group with vacuolation pathology; p<0.05
Experimental: as §1
as §2, with “Al! primers were obtained from Integrated DNA Technology's PrimeTime qPCR primer library (Integrated DNA Technologies, Coralville, Iowa).” left out

liver gene expression = experiment: Liver gene expression by microarray (transcriptomic analysis); type: in vivo, rats
Experimental: (§3) Serum miRNA expression was measured by next-generation sequencing. Gene expression in the liver was determined by microarray, and global serum and liver protein expression was determined by semi-quantitative mass spectrometry. […] Transcriptomic analysis identified 506 differentially expressed genes in the liver. 13 miRNAs were predicted to target 100 unique differentially expressed genes in the liver. Global proteomics analysis identified 131 differentially expressed proteins in the liver and 53 in the serum. Of these, 7 miRNAs targeted 13 unique genes coding for differentially expressed liver tissue proteins and 3 miRNAs targeted 3 unique genes coding for serum proteins. These 16 differentially expressed miRNAs in the serum are predicted to target and potentially regulate gene expression contributing to the progression of toxic liver injury. (Fermenter M G et al. Serum miRNA as prognostic indicators of toxic liver injury. Submitted abstract in October 2015 for presentation at the Society of Toxicology in March 2016 (New Orleans, La.)).

serum miRNA = experiment: Serum miRNA expression by next-generation sequencing; type: in vivo, rats; conditions: FDR<0.05
Experimental: as §3

Timp1 = experiment: qPCR of liver RNA: Timp1; type: in vivo, Male Sprague-Dawley rats; conditions: across dose groups, vs control
Experimental: as §1
as §2, with “Al! primers were obtained from Integrated DNA Technology's PrimeTime qPCR primer library (Integrated DNA Technologies, Coralville, Iowa).” left out

liver = conditions: 5-7 days oral administration or intraperitoneal injection, various doses; cited from earlier work
[1] = test system: tissue, plasma, or serum protein abundance; experiment: Global semiquantitative proteomics (iTRAQ mass spectrometry) of tissue, plasma, serum; type: in vivo, Rattus norvegicus; conditions: for Differentially expressed proteins: global proteomics
Text: Global semiquantitative proteomics analysis (iTRAQ analysis) identified protein products of a subset of the 24 genes differentially expressed in liver tissue specific for the fibrosis phenotype (Table 6). Six protein products were identified in plasma, four in the serum, and two in the liver tissue (Table 6). All protein products were identified in the contrast analysis as specific for the fibrosis phenotype. The direction of the changes in protein products matched the transcriptomics data with the exception of insulin-like growth factor binding protein complex acid labile subunit precursor. […] (Ippolito D L, et. al. Gene expression patterns associated with histopathology in toxic liver fibrosis. Tox Sci. 2015 Sep. 22. pii: kfv214)
as §3

[2] = test system: 67 genes on the fibrosis gene panel; conditions: rat, in vivo
Experimental: mRNA is isolated and purified from lysed tissue biopsy specimens. The target mRNA is incubated with beads conjugated to capture probes (each probe is an oligonucleotides specific for one of the genes in the panel). The target is hybridized to the probe by a capture extender-capture probe interaction. Specific mRNA targets hybridize overnight to the respective beads. The signal is amplified by incubating mRNA-capture probe pairs by affixing an amplifier affixed to a biotinylated label probe. Streptavidin-conjugated phycoerythrin (SAPE) is bound to the biotinylated probe to amplify the signal. The signal is detected and quantified by Bioplex suspension array instrumentation, which measures the SAPE fluorescence signal proportional to the amount of mRNA transcripts captured by the bead.
Candidate genes identified by co-expression modules and pathway/network approaches were fabricated into a custom gene panel using a commercial source (the QuantiGene 2.0 Plex assay, Affymetrix, Santa Clara, Calif.). A total of 71 genes plus 3 housekeeping genes were selected. Using 150 ng RNA input, samples were processed following manufacturer's instructions for purified RNA with use of the HandHeld Magnetic Plate Washer. Plates were read immediately following the final wash using the BioPlex 200 instrument (BioRad, Hercules, Calif.). The following parameters were set on the BioPlex instrument: sample size=100 μL; DD Gate=5,000-25,000; Timeout=45 sec; Bead Event/Bead Region=100.
For each sample, the average signal intensity was determined as recommended by the manufacturer. Duplicates were averaged. The average background signal for each gene was subtracted. Assay limit of detection was determined by adding three standard deviations of assay background signals to the average intensity of the background control wells. All intensities lower than the limit of detection for each probe was set to one unit above the probe's limit of detection. Probes with all intensities below the assay limit of detection were removed from the final analysis. The test gene signal was divided by the average intensities of the three normalization genes (Gapdh, Hprt1, Ppib). For each test gene, the fold change was calculated by dividing the normalized value for the treated samples by the normalized value of the vehicle-treated controls. Fold changes were plotted as log2 fold change. Gene expression data were imported into Partek Genomics Suite 6.0 (Partek, Inc., St. Louis, Mo.). Principal component analysis was used for multivariate interpretation to determine sources of variation across sample groups (Joliffe I T, Morgan B J. Principal component analysis and exploratory factor analysis. Statistical methods in medical research 1992; 1(1):69-95). Differentially expressed genes were determined by analysis of variance (ANOVA) with contrasts, setting the ANOVA factors as toxicant and the histopathological endpoint of fibrosis (any score >0). ANOVA variables were fibrosis score 0 (none) vs. score of >0 (minimal, mild, moderate, and marked). For hierarchical biclustering, differentially expressed genes were standardized by setting the genes expressed to a mean of zero and scaling to a standard deviation of one. Euclidean geometry was used to cluster row and column dissimilarity using a method of average linkage.
Chemical-dose groups were down-selected based on histopathology to conform to the 96-well assay format of the multiplexed panel of presumptive fibrosis genes. Three of the four dose groups were evaluated for the fibrogenic chemicals allyl alcohol and 4,4′-methylenedianiline. A single dose was selected with group-matched vehicle controls for each of the remaining chemicals. […] The highest dose of bromobenzene was selected because the vacuolation pathology was only observed at this dose.
Isolated liver RNA was incubated with microbead-bound capture probes specific for the 71 presumptive fibrogenic genes and three housekeeping normalization genes.

[3] = Observation of plasma (lipemia) after dosing; type: in vivo, Male Sprague-Dawley rats; conditions: all doses
Experimental: Animals were observed cageside one hour following daily dose administration, then 1-2 times per day during dosing regimens. Body weights were measured daily prior to dose administration, and prior to euthanasia. Twenty-four hours after the final dose administration, animals were anesthetized with isoflurane then euthanized by exsanguination followed by decapitation. Livers were harvested at necropsy and weighed to within 0.1 g. One half of the left lobe of the liver was fixed in 10% formalin. The remaining half of the left lobe of the liver was flash frozen in liquid nitrogen, then stored below −70° C. Liver specimens were frozen in less than three minutes from time of death.

[4] = liver, across dose groups, vs control
[5] = plasma, 4,4′-methylenedianiline/vehicle, Group 2
[6] = serum, 4,4′-methylenedianiline/vehicle, Group 2
[7] = tissue, 4,4′-methylenedianiline/vehicle, Group 2

Brc1ccccc1 [bromobenzene]
Tgfb1 gene expression by qPCR (Tgfb1; [4]): not significantly affected at any dose; also recorded: slight, statistically insignificant increase
Psma5 expression (Psma5): 2.2±0.8 fold vehicle control

ClC(Cl)(Cl)Cl [carbon tetrachloride]
Tgfb1 gene expression by qPCR (Tgfb1; [4]): insignificant
Tgfb1 gene expression by qPCR (Tgfb1; liver, across dose groups, vs control, listed as Carbon tetrachloride): not significantly upregulated at any dose

Nc1ccc(Cc2ccc(N)cc2)cc1 [4,4′-methylenedianiline]
Tgfb1 gene expression by qPCR (Tgfb1; [4]): showed a dose-dependent increase; also recorded: dose-dependent increases in gene expression
Differentially expressed genes (liver gene expression): 506
Differentially expressed miRNA (serum miRNA): 16
Downregulated miRNA (serum miRNA): 4
Upregulated miRNA (serum miRNA): 12
Timp1 gene expression by qPCR (Timp1): showed a dose-dependent increase; also recorded: dose-dependent increases in gene expression
Fibrosis score in the DrugMatrix study (liver): scored fibrosis-positive
Differentially expressed proteins ([1]; liver): 131
Fold change alpha-2-macroglobulin precursor [1, 5]: 2.2 Fold change
Fold change ceruloplasmin isoform 1 precursor [1, 5]: 2.5 Fold change
Fold change fibronectin precursor [1, 5]: −1.3 Fold change
Fold change insulin-like growth factor-binding protein complex acid labile subunit precursor [1, 5]: −1.4 Fold change
Fold change vitronectin precursor [1, 5]: −1.6 Fold change
Differentially expressed proteins ([1]; serum): 53
Fold change alpha-2-macroglobulin precursor [1, 6]: 2.4 Fold change
Fold change ceruloplasmin isoform 1 precursor [1, 6]: 2.4 Fold change
Fold change complement C1q subcomponent subunit B precursor [1, 6]: 1.6 Fold change
Fold change vitronectin precursor [1, 6]: −1.1 Fold change
Fold change ceruloplasmin isoform 1 precursor [1, 7]: 3.0 Fold change
Fold change fibronectin precursor [1, 7]: 1.4 Fold change

C[C@@H]1C[C@H]2[C@@H]3CCC4=CC(=O)C=C[C@]4(C)[C@@]3(F)[C@@H](O)C[C@]2(C)[C@@]1(O)C(=O)CO [dexamethasone]
Tgfb1 gene expression by qPCR (Tgfb1; 44.8 mg/kg): the difference was not statistically significant
Tgfb1 gene expression by qPCR (Tgfb1; 1, 6.7, or 300 mg/kg): significantly downregulated
Tgfb1 gene expression by qPCR (Tgfb1; [4]): decreased gene expression
Panel genes downregulated (and upregulated in fibrogenic chemical-dose groups) [2]: 12 genes
Pcolce expression levels compared with fibrogenic compounds [2]: anti-correlated with corresponding gene expression levels induced by 4,4′-methylenedianiline and allyl alcohol
Lipemia (plasma appearance) [3]: resulted in lipemia (milky white plasma)
